From patent US20090048287A1, “Compositions useful for treating gastrointestinal motility disorders” (priority 2003, published 2009)

Key:
Format in all cases: in vivo, cat
[1] = test system: feline model of GERD; experiment: Lower esophageal sphincter pressure (LESP), manometric recording in sedated cats; conditions: MKC-733 1.0 and 10 mg/kg i.v., naive and omeprazole pretreated, FIG. 2
Description: (§1) Experiments to determine the effects of MKC-733, omeprazole or the combination of MKC-733 and omeprazole on LESP, lower esophageal pH, esophageal motility and TLESR, in a feline model of GERD were conducted.
The cats used in the experiments were fasted overnight and sedated with ketamine (15-20 mg/kg intramuscular injection). A butterfly catheter filled with heparinized sterile saline was placed into the brachial vein and used for supplemental ketamine anesthesia and drug administration.
Each animal was fitted with a water-perfused sleeve catheter (Andorfer Inc, Greendale, Wis.) attached via pressure transducers to a minimally compliant hydrolytic pump. […] This 4 cm region was referred to as site 1 and the pressure was simultaneously recorded along this region. […] Throughout the experiment, the output from the pressure transducers was manometrically recorded using the PowerLab Chart 5 data acquisition program (ADInstruments, Colorado Springs, Colo.) on a computer using a Windows XP operating system.
The manometric pressure recording at site 1 of the catheter provided the baseline (at rest) LESP for each animal. The baseline LESP was recorded for each measurement regimen set forth in Experiments 1 and 2 below, and then compared. […]
(§2) Following instrumentation, baseline values of LESP, esophageal pH, esophageal peristalsis and TLESR were measured as described above. […]

[2] = test system: feline model of GERD; experiment: Lower esophageal pH monitoring during gastroesophageal reflux in sedated cats; conditions: naive, MKC-733 1.0 and 10 mg/kg i.v.
Description: as §1
An Orion II pH probe (Medical Measurements Systems), running along with the manometric catheter, was positioned with one pH measuring site in the stomach and a second pH measuring site in the distal esophagus. pH was monitored and recorded simultaneously with the manometric recordings using a computerized data acquisition system (Medical Measurements Systems).
The pH in the lower esophagus was monitored at the same time as the manometric pressure. The pH was recorded for each measurement regimen set forth in Experiments 1 and 2.
All animals were acclimated to the facility for one week prior to testing. […]
as §2
Data is presented as mean±SEM. […] Significance of LESP treatment effects within and between experiments was evaluated using 2-Way repeated measures ANOVA. […] Significance of treatment effects for pH was evaluated using a nonparametric one-way repeated measures ANOVA (Friedman Test). […]
In 2 of the 5 animals, the 10 mg/kg dose was not administered. In 1 of the 3 remaining animals, pH was also not recorded following the […] dose.

[3] = test system: feline model of GERD; experiment: Esophageal motility: peristaltic contraction amplitude after spontaneous dry swallows and balloon distension in cats
Description: as §1
Each animal was fitted with a water-perfused sleeve catheter (Andorfer Inc, Greendale, Wis.) attached via pressure transducers to a minimally compliant hydrolytic pump. The sleeve was positioned within the LES with the tip placed into the stomach. The total distance between recording site 0 (tip in the stomach) and recording site 2 was 4 cm. This 4 cm region was referred to as site 1 and the pressure was simultaneously recorded along this region. […] Throughout the experiment, the output from the pressure transducers was manometrically recorded using the PowerLab Chart 5 data acquisition program (ADInstruments, Colorado Springs, Colo.) on a computer using a Windows XP operating system.
The manometric pressure recordings at sites 1-5 of the sleeve catheter were recorded during primary peristalsis induced by three spontaneous dry swallows (SDS) and secondary peristalsis induced by 3 balloon distensions (BD; distension of a balloon catheter 2 cm in diameter for 5 second placed in the mid portion of the esophagus).
Esophageal motility was characterized based on the amplitude of the contractions recorded at sites 2-5 of the catheter in response to three SDS and three BD. […]

O=C(N[C@H]1CN2CCC1CC2)c1c[nH]c2ccsc2c1=O [MKC-733, (R)—N-1-azabicyclo[2.2.2]oct-3-yl-4,7-dihydro-7-oxothieno[3,2-b]pyridine-6-carboxamide]
LESP normalized to vehicle controls within experiments [1]: statistically significant dose-dependent increase in LESP
percentage of time during gastroesophageal (GER) episodes when lower esophageal pH was greater than 4.0 ([2]; FIG. 3): positive trend that appeared dose-dependent
nadir pH values during GER ([2]; FIG. 4): did not effect nadir pH values
oral-to-aboral peristaltic contraction amplitude ([3]; MKC-733 1.0 and 10 mg/kg i.v., normalized to vehicle, FIG. 5): dose-dependent significant enhancement
difference in effect on peristaltic contraction amplitude between naive cats and those pretreated with omeprazole ([3]; MKC-733 i.v., data not shown): no significant differences
